Results reported in ChEMBL document CHEMBL1128193, “4-(Heteroarylthio)-2-biphenylyltetrazoles as nonpeptide angiotensin II antagonists” (J Med Chem, 1995).

molecular target: T1, Angiotensin II receptor (Rattus norvegicus, UniProt P29089+P25095+P35351); experiment: Displacement of [3H]-AII from the Angiotensin II receptor isolated from the liver of rats
T1 sequence (P29089 whole entry): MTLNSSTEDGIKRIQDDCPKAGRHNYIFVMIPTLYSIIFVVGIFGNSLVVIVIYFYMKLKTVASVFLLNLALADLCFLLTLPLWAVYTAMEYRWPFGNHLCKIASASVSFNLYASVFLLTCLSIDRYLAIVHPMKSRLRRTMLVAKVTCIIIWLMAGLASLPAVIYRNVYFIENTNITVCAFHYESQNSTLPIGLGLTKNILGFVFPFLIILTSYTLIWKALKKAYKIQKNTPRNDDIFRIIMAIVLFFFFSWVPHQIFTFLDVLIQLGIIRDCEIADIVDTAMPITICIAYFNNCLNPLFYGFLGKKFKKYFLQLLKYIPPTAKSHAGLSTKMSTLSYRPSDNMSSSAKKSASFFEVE
T1 sequence (P25095 whole entry): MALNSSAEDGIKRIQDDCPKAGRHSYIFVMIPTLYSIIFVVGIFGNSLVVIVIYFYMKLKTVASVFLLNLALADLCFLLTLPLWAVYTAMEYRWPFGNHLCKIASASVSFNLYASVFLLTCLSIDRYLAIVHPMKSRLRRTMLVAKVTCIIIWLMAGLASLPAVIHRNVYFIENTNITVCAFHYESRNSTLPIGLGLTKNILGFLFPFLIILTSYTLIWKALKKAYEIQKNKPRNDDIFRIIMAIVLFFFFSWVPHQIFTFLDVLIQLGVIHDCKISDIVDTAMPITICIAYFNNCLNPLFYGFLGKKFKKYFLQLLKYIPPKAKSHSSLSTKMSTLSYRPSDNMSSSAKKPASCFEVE
T1 sequence (P35351 whole entry): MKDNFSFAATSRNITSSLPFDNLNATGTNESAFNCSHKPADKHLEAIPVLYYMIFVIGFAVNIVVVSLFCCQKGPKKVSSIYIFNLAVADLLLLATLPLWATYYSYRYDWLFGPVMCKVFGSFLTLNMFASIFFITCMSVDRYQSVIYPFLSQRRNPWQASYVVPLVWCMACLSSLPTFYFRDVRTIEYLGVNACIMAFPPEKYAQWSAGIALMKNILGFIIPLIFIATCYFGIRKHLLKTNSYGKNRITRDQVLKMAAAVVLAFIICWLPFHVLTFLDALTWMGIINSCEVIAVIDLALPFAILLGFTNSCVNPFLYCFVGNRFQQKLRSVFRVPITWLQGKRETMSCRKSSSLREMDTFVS

Row | SMILES | IC50
1 | Cc1cc(Sc2ccc(-c3ccccc3-c3nnn(C(c4ccccc4)(c4ccccc4)c4ccccc4)n3)cc2)c2ccccc2n1 | 4700 nM
2 | Cc1cc(OCc2ccc(-c3ccccc3-c3nn[nH]n3)cc2)c2ccccc2n1 | 31 nM
3 | Cc1nc(Sc2ccc(-c3ccccc3-c3nn[nH]n3)cc2)c2ccccc2n1 | 350 nM
4 | CCc1cc(Sc2ccc(-c3ccccc3-c3nn[nH]n3)cc2)c2ncccc2n1 | 20 nM
5 | Cc1nc(Sc2ccc(-c3ccccc3-c3nn[nH]n3)cc2)c2cc[nH]c2n1 | > 10000 nM

Second part, the compound after the results:

Row | IC50 | SMILES
6 | > 10000 nM | Cc1cc(S(=O)(=O)c2ccc(-c3ccccc3-c3nn[nH]n3)cc2)c2ccccc2[n+]1[O-]
7 | 370 nM | Cc1cc(SCc2ccc(-c3ccccc3-c3nn[nH]n3)cc2)c2ccccc2n1
8 | 270 nM | Cc1cc(CCc2ccc(-c3ccccc3-c3nn[nH]n3)cc2)c2ccccc2n1
